Experimental data reported in patent US4024282A, “Pharmaceutically active 2-(3-alkylaminopropoxy)diphenylmethanes” (Mitsubishi Chemical Industries Ltd., priority 1975, dated 1977).
Structures can show the parent of a compound that is named as a salt. Where two headings read alike, the source gives them in different places.

Legend:
[1] = system: reserpine induced hypothermia; test: Antagonism of reserpine induced hypothermia in mice (antireserpine / antidepressant activity); type: in vivo; settings: for Antidepressant activity (in words): according to pharmacological testing, reversal of reserpine hypothermia in mice
Method: (§1) The compounds were administered intraperitoneally and the activities of the compounds were compared with those of Amitriptyline.

[2] = system: electroshock induced tonic extensor; test: Antagonism of electroshock induced tonic extensor (anticonvulsant activity); type: in vivo; settings: Mus musculus, ip; mice; dose preventing 50% of response
Method: as §1

[3] = system: neurological deficit as measured by traction tests; test: Traction test (CNS depressant activity, muscle relaxant action); type: in vivo; settings: mice; for ED50: Mus musculus, ip, traction test, dose preventing 50% of response
Method: as §1

[4] = system: spontaneous motor activity; test: Spontaneous motor activity measured by ANIMEX apparatus (CNS depressant activity); type: in vivo; settings: Mus musculus, ip, mice, i.p., dose preventing 50% of response, read-out: Spontaneous motor activity depression ED50
Method: as §1

tremorine induced tremor = test: Tremorine induced tremor (central anticholinergic effect); type: in vivo; settings: mice; for ED50: Mus musculus, ip, i.p., dose preventing 50% of response, read-out: Antitremorine effect ED50
Method: as §1

in vivo = settings: mouse, ip
[5] = mice, in b83 as compared with Amitriptyline at the same relative potency

Row | Compound | Antidepressant activity (in words) [1] | ED50 [2] | ED50 [3] | ED50 [4] | ED50 (tremorine induced tremor) | LD50 (in vivo) | other results
1 | CN(C)CCOc1ccccc1Cc1ccccc1 [2-(2-dimethylaminoethoxy) diphenylmethane] | do not possess antidepressant activity |  |  |  |  |  | 
2 | CNCCOc1ccccc1Cc1ccccc1 [2-(2-methylaminoethoxy) diphenylmethane] | do not possess antidepressant activity |  |  |  |  |  | 
3 | CN(C)CCCOc1ccccc1Cc1ccccc1 [2-(3-dimethylaminopropoxy)-diphenylmethane] | do not possess antidepressant activity |  |  |  |  |  | 
4 | CNCCCOc1ccccc1Cc1ccccc1 [2-(3-methylaminopropoxy) diphenylmethane hydrochloride] |  | 40 mg/kg | 65 mg/kg | 90 mg/kg | 42 mg/kg | 160 mg/kg | Antireserpine activity, Relative Potency ([1]; mice, i.p., reserpine 5 mg/kg i.p., Amitriptyline = 1): 0.56
5 | CNCCCOc1ccccc1Cc1ccccc1 [2-(3-methylaminopropoxy) diphenylmethane] | high level of antidepressant activity |  |  |  |  |  | CNS depressant action (in words) ([3]; as compared with Amitriptyline at the same relative potency, traction test and spontaneous motor activity): weaker CNS depressant; Anticholinergic action (in words) (tremorine induced tremor; as compared with Amitriptyline at the same relative potency): weaker CNS depressant and anticholinergic action; Toxicity (in words) [5]: low level of toxicity; Toxicity (in words) ([5]; listed as 2-(3-methylaminopropoxy)diphenylmethane): lower toxicity
6 | CN(C)CCC=C1c2ccccc2CCc2ccccc21 [Amitriptyline, reference compound] |  | 16 mg/kg | 15 mg/kg | 18 mg/kg | 4 mg/kg | 65 mg/kg | 
